This passage reports IC50 and viability, T/C results from PubChem BioAssay AID1918947 (Molecular Pharmacology Branch, DTP, NCI, 2023).

Values joined by “and” are separate entries in the source; they are usually repeats but may differ in a detail not shown here. Equal entries are not always repeated.

This experiment deals with A498 complex spheroid viability. Nature of the experiment: Anticancer human tumor A498 cell line growth inhibition.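 As to all read-outs here: spheroids exposed to agents for seven days before readout.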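 As to viability, T/C: 100% = DMSO vehicle-treated spheroids.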 Particulars: for viability, T/C: stronger effect = lower value. The source says: Multicellular complex tumor spheroid response to LSD1 Inhibitor Iadademstat in combination with a variety of drugs and investigational agents in selected tumor cell lines
The current study was undertaken to assess response to LSD1 inhibitors in combination with standard-of-care drugs and investigational agents in solid tumor complex spheroid models as well as in the K-562 leukemia. Complex spheroids include a stromal component modeled by human endothelial cells (HUVEC) and fibroblasts modeled by human mesenchymal stem cells (MSCs). The concentration ranges selected for each drug and investigational agent were based upon clinically achievable concentrations if the clinical Cmax of the agent was known.
Compounds. The drugs and investigational agents used in this study are listed on Table 1. All of the agents used, including staurosporine (NSC755774) and gemcitabine (NSC613327), were obtained from the Developmental Therapeutics Program, NCI. FDA-approved anticancer drugs are available from the NCI at http://dtp.nci.nih.gov/branches/dscb/oncology_drugset_explanation.html. Drugs and investigational agents were >95% pure by proton nuclear magnetic resonance (NMR) and liquid chromatography/mass spectrometry (LC/MS). Stock solutions were prepared at 400x in DMSO, stored at -70 degrees C, and diluted in fresh medium prior to their use. The final concentration of DMSO in cell culture wells never exceeded 0.25% (v/v). The FDA-approved anticancer drug set is available from the Developmental Therapeutics Program at https://dtp.cancer.gov/organization/dscb/obtaining/available_plates.htm. All drugs and investigational agents were tested over a range starting from a high concentration at or near the clinical Cmax and decreasing in half-log increments. If the clinical Cmax for an agent had not been determined, the highest concentration tested was 10 microM.
Cell Lines. The patient-derived cancer cell (PDC) lines: 292921-168-R-J2-PDC, K24384-001-R-PDC, and 521955-158-R2-J5-PDC pancreatic carcinomas, 556581-035-R-J1 ovarian carcinoma, 324938-238-R-J1-PDC, 855422-203-R-J1-PDC and 883617-216-R-J1-PDC urothelial bladder carcinomas, 743489-274-T-PDC renal cell carcinoma, 138582-R-J1 Merkel cell tumor, K60290-347-R-J1 and K57222-313-R-J1-PDC glioblastomas, 653999-131-R-J2-PDC, LG0703-F948-PDC, and 349418-098-R-PDC non-small cell lung carcinomas, 885512-296-R-J2-PDC, 171881-019-R-J1-PDC breast carcinomas and 186277-243-T-J2-PDC and 233499-124-R-J2-PDC colon carcinomas were obtained from the NCI Patient-Derived Models Repository (PDMR, https://pdmr.cancer.gov). The established cell lines NCI/ADR-RES (RRID:CVCL_14520 and OVCAR-5 (RRID:CVCL_1628) ovarian carcinomas, 786-O (RRID:CVCL_1051) and A498 (RRID:CVCL_A498) renal cell carcinoma, NCI-H211 (ATCC, cat. CRL-5824; RRID:CVCL_1529), NCI-H196 (ATCC, cat. CRL-5823, RRID:CVCL_1509), SW 1271 (ATCC, cat. CRL-2177, RRID:CVCL_1716) and NCI-H1876 (ATCC, cat. CRL-5902, RRID:CVCL_1503) small cell lung carcinomas, MDA-MB-231 (RRID:CVCL_0062) and MDA-MB-468 (RRID:CVCL_0419)breast carcinomas (10-12). Pooled donor human umbilical vein endothelial cells (HUVEC, Lonza, cat. CC-2519) and human mesenchymal stem cells (hMSC, Lonza, cat. PT-2501) were purchased from Lonza (Walkersville, MD).
Cell Culture. All cells were maintained in an incubator at 37 degrees C and 5% CO2 with 95% humidity. The PDC lines were cultured according to standard operating procedures established by the NCI PDMR (https://pdmr.cancer.gov). Briefly all PDCs were thawed and cultured in Matrigel-coated flasks prepared with a working solution of 1X Ham's F-12 nutrient mix, without supplementation (Invitrogen, Waltham, MA, cat. 11765054), 100 U/mL penicillin-streptomycin (Invitrogen, cat. 15140122), and 2.5% Matrigel (Corning Inc., Corning, NY, cat. 354248) for the first three passages. […]

Where [1] appears, read: curve of first compound, second compound 0.1 µM.
The mark [2] stands for this setting: curve of first compound, second compound 0.316 µM.
[3] abbreviates: curve of first compound, second compound 1 µM.
Setting [4] is: curve of first compound, second compound 3.16 µM.
The mark [5] stands for this setting: curve of first compound, second compound 10 µM.
[6] abbreviates: second compound 0.1 µM, first compound 0.0316 µM.
[7] abbreviates: second compound 0.1 µM, first compound 0.1 µM.
[8] abbreviates: second compound 0.316 µM, first compound 0.0316 µM.
[9] abbreviates: second compound 0.316 µM, first compound 0.1 µM.
Where [10] appears, read: second compound 1 µM, first compound 0.0316 µM.
Where [11] appears, read: second compound 1 µM, first compound 0.1 µM.
[12] abbreviates: second compound 3.16 µM, first compound 0.0316 µM.
The mark [13] stands for this setting: second compound 3.16 µM, first compound 0.1 µM.
Where [14] appears, read: second compound 10 µM, first compound 0.0316 µM.
Setting [15] is: second compound 10 µM, first compound 0.1 µM.

On to `CC1COCCN1c1cc(C2(S(C)(=N)=O)CC2)nc(-c2ccnc3[nH]ccc23)n1` (centres undefined) + NC1CCC(NC2CC2c2ccccc2)CC1, for which the concentration for half-maximal inhibition (IC50) was 648 nM under setting [1]; 784 nM under setting [2]; 677 nM under setting [3]; 590 nM under setting [4]; 507 nM under setting [5]. In addition, the viability, T/C runs as follows: under setting [6], 91.8%; under setting [7], 89%; (second compound 0.1 µM, first compound 0.316 µM) 70.7%; (second compound 0.1 µM, first compound 1 µM) 37.2%; (second compound 0.1 µM, first compound 3.16 µM) 18.2%; (second compound 0.1 µM, first compound 10 µM) 12%. For the same compound, the viability, T/C is 99% under setting [8]; 96.9% under setting [9]; 82.8% (second compound 0.316 µM, first compound 0.316 µM); 40.6% (second compound 0.316 µM, first compound 1 µM); 18.9% (second compound 0.316 µM, first compound 3.16 µM); 11.2% (second compound 0.316 µM, first compound 10 µM). Further, the viability, T/C under setting [10] is 86.8%; the viability, T/C under setting [11] is 94%; the viability, T/C (second compound 1 µM, first compound 0.316 µM) is 72.4%; the viability, T/C (second compound 1 µM, first compound 1 µM) was 37.6%; the viability, T/C (second compound 1 µM, first compound 3.16 µM) is 19.6%; the viability, T/C (second compound 1 µM, first compound 10 µM) is 11.4%. Moreover, the viability, T/C runs as follows: under setting [12], 81.3%; under setting [13], 85.6%; (second compound 3.16 µM, first compound 0.316 µM) 69.7%; (second compound 3.16 µM, first compound 1 µM) 32.7%; (second compound 3.16 µM, first compound 3.16 µM) 17.6%; (second compound 3.16 µM, first compound 10 µM) 12.3%. In addition, the viability, T/C by setting is: under setting [14], 76.6%; under setting [15], 75.9%; (second compound 10 µM, first compound 0.316 µM) 60.8%; (second compound 10 µM, first compound 1 µM) 33.9%; (second compound 10 µM, first compound 3.16 µM) 17.9%; (second compound 10 µM, first compound 10 µM) 12.8%.
Take `COc1ccc([C@@H](O)c2cc(-c3ncnc4cc(N5CCOCC5)ccc34)c(F)cc2Cl)nn1`: the viability, T/C runs as follows: (compound 0.0316 µM) 84.8% and 74.3%; (compound 0.1 µM) 62.5% and 53.8%; (compound 0.316 µM) 33.1% and 28.8%; (compound 1 µM) 19.1% and 18.4%; (compound 3.16 µM) 10.7% and 9.71%; (compound 10 µM) 6.93% and 6.16%. Moreover, under “curve of compound”, the IC50 is 164 nM and 115 nM.
Consider `CC(C)c1c(-c2ccccc2)nc2c(C#N)c[nH]n2c1=O`, for which the viability, T/C by setting is: (compound 0.0316 µM) 101% and 102%; (compound 0.1 µM) 104% and 102%; (compound 0.316 µM) 101% and 104%; (compound 1 µM) 103% and 97.9%; (compound 3.16 µM) 102% and 107%; (compound 10 µM) 101% and 107%. Moreover, where the note is “curve of compound”, the 50% inhibitory concentration (IC50) was greater than 10000 nM.
For `CC(C)CC(NC(=O)C(Cc1ccccc1)NC(=O)c1cnccn1)B(O)O` (centres undefined) + NC1CC1c1ccc(-c2cccc(O)c2)cc1, the half-inhibitory concentration (IC50) was 0.661 nM under setting [1]; 0.69 nM under setting [2]; 0.66 nM under setting [3]; 0.598 nM under setting [4]; 0.604 nM under setting [5]. Besides, the viability, T/C (second compound 0.1 µM, first compound 0.000316 µM) is 105%; the viability, T/C (second compound 0.1 µM, first compound 0.001 µM) is 19.2%; the viability, T/C (second compound 0.1 µM, first compound 0.00316 µM) was 2.39%; the viability, T/C (second compound 0.1 µM, first compound 0.01 µM) is 0.87%; the viability, T/C under setting [6] is 1%; the viability, T/C under setting [7] was 0.39%. Moreover, the viability, T/C is 109% (second compound 0.316 µM, first compound 0.000316 µM); 21.9% (second compound 0.316 µM, first compound 0.001 µM); 3.05% (second compound 0.316 µM, first compound 0.00316 µM); 1.15% (second compound 0.316 µM, first compound 0.01 µM); 0.51% under setting [8]; 0.37% under setting [9]. Further, the viability, T/C (second compound 1 µM, first compound 0.000316 µM) was 106%; the viability, T/C (second compound 1 µM, first compound 0.001 µM) was 18.4%; the viability, T/C (second compound 1 µM, first compound 0.00316 µM) was 2.67%; the viability, T/C (second compound 1 µM, first compound 0.01 µM) was 0.79%; the viability, T/C under setting [10] was 0.63%; the viability, T/C under setting [11] is 0.4%. Also, the viability, T/C reads like this: (second compound 3.16 µM, first compound 0.000316 µM) 95.6%; (second compound 3.16 µM, first compound 0.001 µM) 13.3%; (second compound 3.16 µM, first compound 0.00316 µM) 2.6%; (second compound 3.16 µM, first compound 0.01 µM) 1.41%; under setting [12], 0.42%; under setting [13], 0.5%. For the same compound, the viability, T/C by setting is: (second compound 10 µM, first compound 0.000316 µM) 93.7%; (second compound 10 µM, first compound 0.001 µM) 15.9%; (second compound 10 µM, first compound 0.00316 µM) 2.17%; (second compound 10 µM, first compound 0.01 µM) 0.62%; under setting [14], 0.39%; under setting [15], 0.43%.
